Source: patent publication US5462954A, “Substituted phenyl phenol leukotriene antagonists” (Eli Lilly and Company, priority 1994, dated 1995)
Structures can show the parent of a compound that is named as a salt.

Biological target: binding of tritiated LTB4 to guinea pig lung membranes (Cavia porcellus, UniProt H0VYV8)
Assay: biochemical
Conditions: read-out: pKi (mean -log Ki) (converted)
Method: The effectiveness of compounds of Formula I to inhibit the binding of tritiated LTB4 to guinea pig lung membranes was determined as follows.
The binding reaction was terminated by the addition of 1 mL ice cold wash buffer (25 mM Tris-HCl, pH 7.5) followed immediately by vacuum filtration over Whatman GF/C glass fiber filters using a Brandel (Gaithersburg, Md.) 48 place harvester. The filters were washed three times with 1 mL of wash buffer. Retained radioactivity was determined by liquid scintillation counting at 50% counting efficiency using Ready Protein Plus cocktail (Beckman, Fullerton, Calif.). Nondisplaceable binding was determined in the presence of 1 μM LTB4 and was usually less than 10% of total binding. […] The data reported below is the mean -log Ki, otherwise known as the pKi, for n experiments.

Chain of binding of tritiated LTB4 to guinea pig lung membranes (H0VYV8 1-348): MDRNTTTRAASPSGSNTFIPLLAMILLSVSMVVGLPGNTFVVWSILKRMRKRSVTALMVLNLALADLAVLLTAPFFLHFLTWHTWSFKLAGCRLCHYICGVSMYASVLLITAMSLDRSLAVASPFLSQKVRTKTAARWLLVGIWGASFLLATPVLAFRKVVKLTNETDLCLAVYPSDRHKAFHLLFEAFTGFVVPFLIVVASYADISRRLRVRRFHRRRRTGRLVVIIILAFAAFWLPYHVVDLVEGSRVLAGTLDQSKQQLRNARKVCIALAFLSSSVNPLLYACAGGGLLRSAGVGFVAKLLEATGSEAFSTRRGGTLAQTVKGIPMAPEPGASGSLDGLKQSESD

Row | SMILES | Ki [nM]
1 | CCc1cc(-c2ccc(F)cc2)c(O)cc1OCC/C=C\c1ccccc1CCC(=O)O [9 (cis), 3-(2-(4-(2-Ethyl-4-(4-fluorophenyl)-5-hydroxyphenoxy)-(1-butenyl))phenyl)propionic acid] | 3.63
2 | CCc1cc(-c2ccc(F)cc2)c(O)cc1OCC/C=C/c1ccccc1CCC(=O)O [9 (trans), 3-(2-(4-(2-Ethyl-4-(4-fluorophenyl)-5-hydroxyphenoxy)-(1-butenyl))phenyl)propionic acid] | 3.89
3 | CCc1cc(-c2ccc(F)cc2)c(O)cc1OCCCOc1cccc(OCCCCC(=O)N(C)C)c1CCC(=O)O [Example 3, 3-(2-(3-(2-Ethyl-4-(4-fluorophenyl)-5-hydroxyphenoxy)propoxy)-6-(4-dimethylaminocarbonylbutyloxy)phenyl)propionic acid] | 8.32
4 | CCc1cc(-c2ccc(F)cc2)c(O)cc1OCCCOc1cccc(OCCCCC(=O)O)c1CCC(=O)O [Example 5, 3-(2-(3-(2-Ethyl-4-(4-fluorophenyl)-5-hydroxyphenoxy)propoxy)-6-(4-carboxybutyloxy)phenyl)propionic acid] | 0.55
5 | CCc1cc(-c2ccc(F)cc2)c(O)cc1OCCC=Cc1ccccc1CCC(=O)O [Example 9, 3-(2-(4-(2-Ethyl-4-(4-fluorophenyl)-5-hydroxyphenoxy)-(1-butenyl))phenyl)propionic acid] | 5.13
6 | CCc1cc(-c2ccc(F)cc2)c(O)cc1OCCCCc1ccccc1CCC(=O)O [Example 10, 3-(2-(4-(2-Ethyl-4-(4-fluorophenyl)-5-hydroxyphenoxy)butyl)phenyl)propionic acid] | 8.91
7 | CCc1cc(-c2ccc(F)cc2)c(O)cc1OCCCCc1cccc(OC)c1CCC(=O)O [Example 11, 3-(2-(4-(2-Ethyl-4-(4-fluorophenyl)-5-hydroxyphenoxy)butyl)-6-methoxyphenyl)propionic acid] | 21.4
8 | CCCCOc1cccc(OCCCOc2cc(O)c(-c3ccc(F)cc3)cc2CC)c1CCC(=O)O [Example 14, 3-(2-(3-(2-Ethyl-4-(4-fluorophenyl)-5-hydroxyphenoxy)propoxy)-6-(4-butyloxy)phenyl)propionic acid] | 30.2
9 | CCc1cc(-c2ccc(F)cc2)c(O)cc1OCCCOc1cccc(OCCCCSC)c1CCC(=O)O [Example 15, 3-(2-(3-(2-Ethyl-4-(4-fluorophenyl)-5-hydroxyphenoxy)propoxy)-6-(4-methylthiobutyloxy)phenyl)propionic acid] | 5.89
10 | O=C(O)CCCCOc1cccc(OCCCOc2cc(O)c(-c3ccc(F)cc3)cc2-c2ccc(F)cc2)c1CCC(=O)O [Example 16, 3-(2-(3-(2,4-Di(4-fluorophenyl)-5-hydroxyphenoxy)propoxy)-6-(4-carboxybutoxy)phenyl)propionic acid] | 17.4
11 | CCCCCC(C)(CCCCCOc1cc(O)c(-c2ccc(F)cc2)cc1CC)c1nnn[nH]1 (stereo not drawn) [Example 17, 6-Methyl-6-(1H-tetrazol-5-yl)-11-(2-ethyl-4-(4-fluorophenyl)-5-hydroxyphenoxy)undecane] | 53.7
12 | CCc1cc(-c2ccc(F)cc2)c(O)cc1OCCCOc1ccccc1CCC(=O)NS(=O)(=O)c1ccccc1 [Example 20, N-Phenylsulfonyl-3-(2-(3-(2-ethyl-4-(4-fluorophenyl)-5-hydroxyphenoxy)propoxy)phenyl)propionamide] | 2.29
13 | CCc1cc(-c2ccc(F)cc2)c(O)cc1OCCCOc1cccc(Oc2ccc(C(=O)O)cc2)c1CCC(=O)O [Example 25, 3-(2-(3-(2-Ethyl-4-(4-fluorophenyl)-5-hydroxyphenoxy)propoxy)-6-(4-carboxyphenoxy)phenyl)propionic acid] | 0.138
14 | CCc1cc(-c2ccc(F)cc2)c(O)cc1OCCCOc1cc(Oc2ccc(C(=O)O)cc2)ccc1CCC(=O)O [Example 26, 3-(2-(3-(2-Ethyl-4-(4-fluorophenyl)-5-hydroxyphenoxy)propoxy)-4-(4-carboxyphenoxy)phenyl)propionic acid] | 13.8
15 | O=C(O)CCc1ccccc1OCCCOc1cc(O)c(-c2ccc(F)cc2)cc1Br [Example 30, 3-(2-(3-(2-Bromo-4-(4-fluorophenyl)-5-hydroxyphenoxy)propoxy)phenyl)propionic acid] | 186
16 | CCc1cc(-c2ccc(F)cc2)c(O)cc1OCCCOc1ccc(CCCCC(=O)O)c2c1CCC(=O)O2 [Example 33, 5-(3-(2-Ethyl-4-(4-fluorophenyl)-5-hydroxyphenoxy)propoxy)-8-(4-carboxybutyl)dihydrocoumarin] | 0.257
17 | CCc1cc(-c2ccccc2)c(O)cc1OCCCOc1ccc2c(c1CCC(=O)O)CCC(CC(=O)O)C2=O (stereo not drawn) [Example 50, 3-(5-(6-(4-Phenyl-5-hydroxy-2-ethylphenoxy)propoxy)-2-carboxymethyl-1,2,3,4-tetrahydronaphthalen-1(2H)-one)propanoic acid] | 0.851
18 | CCc1cc(-c2ccc(F)cc2)c(O)cc1OCCCOc1ccc2c(c1CCC(=O)O)CCC(CC(=O)O)C2=O (stereo not drawn) [Example 51, 3-(5-(6-(4-(4-Fluorophenyl)-5-hydroxy-2-ethylphenoxy)propoxy)-2-carboxymethyl-1,2,3,4-tetrahydronaphthalen-1(2H)-one)propanoic acid] | 0.219
19 | CCc1cc(-c2ccc(F)cc2)c(O)cc1OCCCOc1ccc2c(c1CCC(=O)O)CC(CC(=O)O)C2=O (stereo not drawn) [Example 52, 3-(4-(5-(4-(4-Fluorophenyl)-5-hydroxy-2-ethylphenoxy)propoxy)-2-carboxymethyl-2,3-dihydroinden-1(2H)-one)propanoic acid] | 0.263
20 | CCc1cc(-c2ccc(F)cc2)c(O)cc1OCCCOc1ccc(C(=O)CC(C)(C)CC(=O)O)cc1CCC(=O)O [Example 53] | 1.55
21 | CCCc1c(OCCCOc2cc(O)c(-c3ccccc3)cc2CC)ccc2c1OC(C(=O)O)CC2 (stereo not drawn) [Example 54, 7-[3-[(5-Ethyl-2-hydroxy[1,1'-biphenyl]-4-yl)oxy]propoxy]-3,4-dihydro-8-propyl-2H-1-benzopyran-2-carboxylic acid] | 1.2
22 | CCc1cc(-c2ccccc2)c(O)cc1OCCCOc1ccc2oc3ccccc3c2c1CCC(=O)O [Example 59, 3-[2-[3-[(5-Ethyl-2-hydroxy[1,1'-biphenyl]-4-yl)oxy]propoxy]-1-dibenzofuran]propanoic acid disodium salt] | 51.3
23 | CCc1cc(-c2ccccc2)c(O)cc1OCCCOc1ccc2c(=O)c3cc(C(=O)O)ccc3oc2c1CCC(=O)O [Example 60, 7-Carboxy-9-oxo-3-[3-(2-ethyl-5-hydroxy-4-phenylphenoxy)propoxy]-9H-xanthene-4-propanoic acid disodium salt monohydrate] | 0.0646
24 | CCc1cc(-c2ccccc2)c(O)cc1OCCCOc1cc(-c2ccccc2)ccc1CCC(=O)O [Example 62, 3-[3-(2-Ethyl-5-hydroxy-4-phenylphenoxy)propoxy][1,1'-biphenyl]-4-propanoicacid disodium salt monohydrate] | 57.5

Second part, the compound after the results:

Row | Ki [nM] | SMILES
25 | 3.63 | CCc1cc(-c2ccc(F)cc2)c(O)cc1OCCCOc1ccccc1CCC(=O)O [Example 4, 3-(2-(3-(2-Ethyl-4-(4-fluorophenyl)-5-hydroxyphenoxy)propoxy)phenyl)propionic acid]
26 | 5.01 | CCc1cc(-c2ccc(F)cc2)c(O)cc1OCCCOc1cccc(OC)c1CCC(=O)O [Example 6, 3-(2-(3-(2-Ethyl-4-(4-fluorophenyl)-5-hydroxyphenoxy)propoxy)-6-methoxyphenyl)propionic acid]
27 | 1.35 | CCc1cc(-c2ccc(F)cc2)c(O)cc1OCCCOc1cccc(OCCCCc2nnn[nH]2)c1CCC(=O)O [Example 7, 3-(2-(3-(2-Ethyl-4-(4-fluorophenyl)-5-hydroxyphenoxy)propoxy)-6-(4-(1H-tetrazol-5-yl)butyloxy)phenyl)propionic acid]
28 | 0.977 | CCc1cc(-c2ccc(F)cc2)c(O)cc1OCCCOc1cccc(O)c1CCC(=O)O [Example 13, 3-(2-(3-(2-Ethyl-4-(4-fluorophenyl)-5-hydroxyphenoxy)propoxy)-6-hydroxyphenyl)propionic acid]
29 | 245 | CCc1cc(-c2ccc(F)cc2)c(O)cc1OCCCOc1ccccc1CCC(=O)N(C)C [Example 18, N,N-Dimethyl-3-(2-(3-(2-ethyl-4-(4-fluorophenyl)-5-hydroxyphenoxy)propoxy)phenyl)propionamide]
30 | 1.51 | CCc1cc(-c2ccc(F)cc2)c(O)cc1OCCCOc1ccccc1CCC(=O)NS(C)(=O)=O [Example 19, N-Methanesulfonyl-3-(2-(3-(2-ethyl-4-(4-fluorophenyl)-5-hydroxyphenoxy)propoxy)phenyl)propionamide]
31 | 47.9 | CCCCc1cc(-c2ccc(F)cc2)c(O)cc1OCCCOc1ccccc1CCC(=O)O [Example 21, 3-(2-(3-(2-Butyl-4-(4-fluorophenyl)-5-hydroxyphenoxy)propoxy)phenyl)propionic acid]
32 | 3.72 | CCc1cc(-c2ccc(F)cc2)c(O)cc1OCCCCOc1ccccc1CCC(=O)O [Example 23, 3-(2-(4-(2-Ethyl-4-(4-fluorophenyl)-5-hydroxyphenoxy)butyloxy)phenyl)propionic acid]
33 | 2.29 | CCc1cc(-c2ccc(F)cc2)c(O)cc1OCCCOc1ccccc1C(C)(C)CC(=O)O [Example 27, 3,3-Dimethyl-3-(2-(3-(2-ethyl-4-(4-fluorophenyl)-5-hydroxyphenoxy)propoxy)phenyl)propionic acid]
34 | 2.69 | CCc1cc(-c2ccc(F)cc2)c(O)cc1OCCCOc1ccccc1CC(C)(C)c1nnn[nH]1 [Example 28, 2-Methyl-2-(1H-tetrazol-5-yl)-3-(2-(3-(2-ethyl-4-(4-fluorophenyl)-5-hydroxyphenoxy)propoxy)phenyl)propane]
35 | 1.95 | CCc1cc(-c2ccc(F)cc2)c(O)cc1OCCCOc1ccccc1C(O)C(C)(C)c1nnn[nH]1 (stereo not drawn) [Example 29, 2-Methyl-2-(1H-tetrazol-5-yl)-3-hydroxy-3-(2-(3-(2-ethyl-4-(4-fluorophenyl)-5-hydroxyphenoxy)propoxy)phenyl)propane]
36 | 81.3 | CCSc1cc(-c2ccc(F)cc2)c(O)cc1OCCCOc1ccccc1CCC(=O)O [Example 31, 3-(2-(3-(2-Ethylthio-4-(4-fluorophenyl)-5-hydroxyphenoxy)propoxy)phenyl)propionic acid]
